The values below are quoted from earlier work in article PMC8008885 (Journal of Enzyme Inhibition and Medicinal Chemistry, 2021).

The data set concerns HD transgenic mice. Conditions: cited from earlier work.

Consider `NCCSSCCN` [cystamine], for which the H3K9 trimethylation result was “reduced”; the SETDB1 gene expression result is “down-regulates”; the “behaviour and neuropathological phenotype” value is “improved”.
Regarding `COC(=O)[C@@H]1c2cc3c(c(O)c2[C@@H](O[C@@H]2O[C@@H](C)[C@H](OC)[C@@](C)(OC)[C@H]2OC)C[C@]1(C)O)C(=O)c1c(O)cc2c(c1C3=O)O[C@@H]1O[C@@]2(C)[C@H](O)[C@@H](N(C)C)[C@@H]1O` [nogalamycin], the “neuroprotective effects by suppressing elevated SETDB1 and H3K9me3 level” value is on record as “improved neuroprotective effects”.
Take mithramycin: the H3K9 trimethylation entry is recorded as “reduced”; the SETDB1 gene expression result is given as “down-regulates”; the “behaviour and neuropathological phenotype” value is “improved”.
